# Test results from patent US20250034136A1 (Nimbus Wadjet, Inc., priority 2023, published 2025).
# How the values were obtained:
# [1] = system: p21 induction in HCT116 cells; experiment: p21 induction in HCT116 cells; assay type: cell-based; conditions: Homo sapiens, HCT-116, 24 h, HCT116 cells, 24 h compound incubation; read-out: P21_EC50
# Summary of the method: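 EC50 from non-linear curve fit of p21 immunofluorescence (800 nm), with GAPDH (700 nm) read alongside. DMSO and a reference WRN inhibitor served as low and high controls. Cells (2,000/well) got 11 compound concentrations in duplicate for 24 h at 37 °C.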
# [2] = biological target: WRN (BV08), human Werner helicase (Uniprot Q14191, amino acids 517-1235 with L1074F point mutation) (Homo sapiens (Human), UniProt Q14191, L1074F); experiment: WRN (BV08) ADP-Glo assay; assay type: biochemical; conditions: class symbols A-E, read-out: ADP-Glo_hWRN_IC50
# Chain of WRN (BV08), human Werner helicase (Uniprot Q14191, amino acids 517-1235 with L1074F point mutation) (Q14191 other isoform, or with tags, fused parts or gaps L1074F (already in the parent)): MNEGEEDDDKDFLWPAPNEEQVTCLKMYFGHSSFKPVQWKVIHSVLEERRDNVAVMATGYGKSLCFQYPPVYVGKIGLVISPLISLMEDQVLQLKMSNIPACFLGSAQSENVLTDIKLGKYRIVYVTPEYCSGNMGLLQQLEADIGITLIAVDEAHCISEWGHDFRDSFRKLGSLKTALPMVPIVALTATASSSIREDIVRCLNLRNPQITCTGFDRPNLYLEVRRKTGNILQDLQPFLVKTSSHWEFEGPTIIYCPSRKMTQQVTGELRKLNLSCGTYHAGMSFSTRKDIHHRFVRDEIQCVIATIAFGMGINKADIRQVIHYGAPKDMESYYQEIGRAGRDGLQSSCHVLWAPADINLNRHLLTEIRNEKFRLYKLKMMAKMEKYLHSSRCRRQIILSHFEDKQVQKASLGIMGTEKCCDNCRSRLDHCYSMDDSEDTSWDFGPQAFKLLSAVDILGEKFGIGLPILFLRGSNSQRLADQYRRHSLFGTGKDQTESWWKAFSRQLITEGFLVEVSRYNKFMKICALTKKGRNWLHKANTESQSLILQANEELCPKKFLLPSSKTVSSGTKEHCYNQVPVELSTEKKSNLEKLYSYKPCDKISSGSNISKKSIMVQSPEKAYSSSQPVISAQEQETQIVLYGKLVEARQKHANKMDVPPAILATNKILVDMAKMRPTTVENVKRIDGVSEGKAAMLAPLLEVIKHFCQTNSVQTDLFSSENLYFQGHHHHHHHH
Structure (SMILES),EC50 [1],IC50 [2]
"CCc1c(N2C[C@H]3CC[C@@H](C2)N3C(=O)c2ncnc(C)c2O)c(=O)c2nc(N(C)C)cnc2n1CC(=O)Nc1ccc(C(F)(F)F)cc1Cl [I-206, N-[2-chloro-4-(trifluoromethyl)phenyl]-2-[2-(dimethylamino)-6-ethyl-7-[(1R,5S)-8-(5-hydroxy-6-methylpyrimidine-4-carbonyl)-3,8-diazabicyclo[3.2.1]octan-3-yl]-8-oxo-5H,8H-pyrido[2,3-b]pyrazin-5-yl]acetamide]",> 5000 nM,5 to 50 nM
[2H]C([2H])([2H])N(c1nc2c(=O)c(N3CCN(C(=O)c4ncnc(C)c4O)[C@H]4CC[C@@H]43)c(CC)n(CC(=O)Nc3ccc(C(F)(F)F)cc3F)c2nc1C)C([2H])([2H])[2H] [I-211],< 500 nM,5 to 50 nM
"CCc1c(N2CCN(C(=O)c3nccc(F)c3O)CC2)c(=O)c2nc(N(C)C)cnc2n1CC(=O)Nc1ccc(C(F)(F)F)cc1Cl [I-212, N-[2-chloro-4-(trifluoromethyl)phenyl]-2-[2-(dimethylamino)-6-ethyl-7-[4-(4-fluoro-3-hydroxypyridine-2-carbonyl)piperazin-1-yl]-8-oxo-5H,8H-pyrido[2,3-b]pyrazin-5-yl]acetamide]",500 to 2000 nM,5 to 50 nM
"CCc1c(N2CCN(C(=O)c3ncnc(C)c3O)[C@@H]3CCC[C@H]32)c(=O)c2nc(N(C)C)cnc2n1CC(=O)Nc1ccc(C(F)(F)F)cc1Cl [I-215, 2-{7-[(4aR,7aR)-4-(5-hydroxy-6-methylpyrimidine-4-carbonyl)-octahydro-1H-cyclopenta[b]pyrazin-1-yl]-2-(dimethylamino)-6-ethyl-8-oxo-5H,8H-pyrido[2,3-b]pyrazin-5-yl}-N-[2-chloro-4-(trifluoromethyl)phenyl]acetamide]",> 5000 nM,100 to 500 nM
"CCc1c(N2CCN(C(=O)c3ncnc(C)c3O)C3(CCC3)C2)c(=O)c2nc(N(C)C)cnc2n1CC(=O)Nc1ccc(C(F)(F)F)cc1Cl [I-216, N-[2-chloro-4-(trifluoromethyl)phenyl]-2-[2-(dimethylamino)-6-ethyl-7-[5-(5-hydroxy-6-methylpyrimidine-4-carbonyl)-5,8-diazaspiro[3.5]nonan-8-yl]-8-oxo-5H,8H-pyrido[2,3-b]pyrazin-5-yl]acetamide]",> 5000 nM,50 to 100 nM
"CCc1c(N2CCN(C(=O)c3ncnc(C)c3O)CC2)c(=O)c2nc(N(C)S(C)(=O)=O)cnc2n1CC(=O)Nc1ccc(C(F)(F)F)cc1Cl [I-217, N-[2-chloro-4-(trifluoromethyl)phenyl]-2-{6-ethyl-7-[4-(5-hydroxy-6-methylpyrimidine-4-carbonyl)piperazin-1-yl]-2-(N-methylmethanesulfonamido)-8-oxo-5H,8H-pyrido[2,3-b]pyrazin-5-yl}acetamide]",> 5000 nM,100 to 500 nM
"CCc1c(N2CCN(C(=O)c3nccc(Cl)c3O)CC2)c(=O)c2nc(N(C)C)cnc2n1CC(=O)Nc1ccc(C(F)(F)F)cc1Cl [I-218, 2-{7-[4-(4-chloro-3-hydroxypyridine-2-carbonyl)piperazin-1-yl]-2-(dimethylamino)-6-ethyl-8-oxo-5H,8H-pyrido[2,3-b]pyrazin-5-yl}-N-[2-chloro-4-(trifluoromethyl)phenyl]acetamide]",500 to 2000 nM,≤ 5 nM
"CCc1c(C2CCN(C(=O)c3ncnc(C)c3O)CC2)c(=O)c2nc(N(C)C)cnc2n1CC(=O)Nc1ccc(C(F)(F)F)cc1Cl [I-221, N-[2-chloro-4-(trifluoromethyl)phenyl]-2-[2-(dimethylamino)-6-ethyl-7-[1-(5-hydroxy-6-methylpyrimidine-4-carbonyl)piperidin-4-yl]-8-oxo-5H,8H-pyrido[2,3-b]pyrazin-5-yl]acetamide]",> 5000 nM,5 to 50 nM

# Results, then the compound that gave them:
EC50 [1],IC50 [2],Structure (SMILES)
500 to 2000 nM,≤ 5 nM,"CCc1c(N2CCN(C(=O)c3ncc4c(c3O)OCC4)CC2)c(=O)c2nc(N(C)C3CC3)cnc2n1CC(=O)Nc1ccc(C(F)(F)F)cc1Cl [I-203, N-[2-chloro-4-(trifluoromethyl)phenyl]-2-{2-[cyclopropyl(methyl)amino]-6-ethyl-7-(4-{7-hydroxy-2H,3H-furo[3,2-c]pyridine-6-carbonyl}piperazin-1-yl)-8-oxo-5H,8H-pyrido[2,3-b]pyrazin-5-yl}acetamide]"
< 500 nM,5 to 50 nM,"CCc1c(N2CCN(C(=O)c3c(OC)ncc(C)c3O)CC2)c(=O)c2nc(N(C)C)cnc2n1CC(=O)Nc1ccc(C(F)(F)F)cc1Cl [I-204, N-[2-chloro-4-(trifluoromethyl)phenyl]-2-[2-(dimethylamino)-6-ethyl-7-[4-(4-hydroxy-2-methoxy-5-methylpyridine-3-carbonyl)piperazin-1-yl]-8-oxo-5H,8H-pyrido[2,3-b]pyrazin-5-yl]acetamide]"
< 500 nM,5 to 50 nM,"CCc1c(N2CCN(C(=O)c3ncnc(C)c3O)CC2)c(=O)c2nc(N(C)C3(C)CC3)cnc2n1CC(=O)Nc1ccc(C(F)(F)F)cc1Cl [I-205, N-[2-chloro-4-(trifluoromethyl)phenyl]-2-{6-ethyl-7-[4-(5-hydroxy-6-methylpyrimidine-4-carbonyl)piperazin-1-yl]-2-[methyl(1-methylcyclopropyl)amino]-8-oxo-5H,8H-pyrido[2,3-b]pyrazin-5-yl}acetamide]"
2000 to 5000 nM,5 to 50 nM,"CCc1c(N2CCN(C(=O)c3ncnc(C)c3O)CC2)c(=O)c2nc(N3CCC34COC4)cnc2n1CC(=O)Nc1ccc(C(F)(F)F)cc1Cl [I-207, N-[2-chloro-4-(trifluoromethyl)phenyl]-2-{6-ethyl-7-[4-(5-hydroxy-6-methylpyrimidine-4-carbonyl)piperazin-1-yl]-2-{6-oxa-1-azaspiro[3.3]heptan-1-yl}-8-oxo-5H,8H-pyrido[2,3-b]pyrazin-5-yl}acetamide]"
< 500 nM,5 to 50 nM,"CCc1c(N2CCN(C(=O)c3ncnc(C)c3O)[C@H]3CC[C@@H]32)c(=O)c2nc(N(C)C)cnc2n1CC(=O)Nc1ccc(OC(F)(F)F)cc1F [I-210, 2-[2-(dimethylamino)-6-ethyl-7-[(1S,6S)-5-(5-hydroxy-6-methylpyrimidine-4-carbonyl)-2,5-diazabicyclo[4.2.0]octan-2-yl]-8-oxo-5H,8H-pyrido[2,3-b]pyrazin-5-yl]-N-[2-fluoro-4-(trifluoromethoxy)phenyl]acetamide]"
500 to 2000 nM,5 to 50 nM,"CCc1c(C2=CCN(C(=O)c3ncnc(C)c3O)CC2)c(=O)c2nc(N(C)C)cnc2n1CC(=O)Nc1ccc(C(F)(F)F)cc1Cl [I-213, N-[2-chloro-4-(trifluoromethyl)phenyl]-2-[2-(dimethylamino)-6-ethyl-7-[1-(5-hydroxy-6-methylpyrimidine-4-carbonyl)-1,2,3,6-tetrahydropyridin-4-yl]-8-oxo-5H,8H-pyrido[2,3-b]pyrazin-5-yl]acetamide]"
< 500 nM,5 to 50 nM,"[2H]C([2H])([2H])N(c1cnc2c(n1)c(=O)c(N1CCN(C(=O)c3ncnc(C)c3O)[C@H]3CC[C@@H]31)c(CC)n2CC(=O)Nc1ccc(C(F)(F)F)cc1F)C([2H])([2H])[2H] [I-214, 2-{2-[di(2H3)methylamino]-6-ethyl-7-[(1S,6S)-5-(5-hydroxy-6-methylpyrimidine-4-carbonyl)-2,5-diazabicyclo[4.2.0]octan-2-yl]-8-oxo-5H,8H-pyrido[2,3-b]pyrazin-5-yl}-N-[2-fluoro-4-(trifluoromethyl)phenyl]acetamide]"
